Values of other authors as cited in PubChem BioAssay AID1259410 (Chemical Carcinogenesis Research Information System (CCRIS), 2018).

Test system: rodent tumor promotion studies, tumor incidence
Assay: CCRIS tumor promotion studies

Structure (SMILES): C[C@]12CCC(=O)C=C1CC[C@@H]1[C@@H]2CC[C@@]2(C)[C@H]1CC[C@]2(C)O
- outcome (Carcinogen: N-BIS(2-HYDROXYPROPYL)NITROSAMINE, 53609-64-6, Doses [Carcinogen]: 210 MG/100 G BW 1/WK FOR 2 WK, Doses [Promoter]: 0, 300 PPM IN DIET OF CASTRATED RATS BEGINNING POST CARCINOGEN TREATMENT AND CONTINUING FOR 28 WK (STUDY DURATION: 30 WK, Route [Carcinogen]: INTRAPERITONEAL, Route [Promoter]: ORAL, Species: RAT, Strain/Sex: WISTAR/MALE): thyroid gland: adenoma or carcinoma

Structure (SMILES): CC/C=C/C=C/C=C/C=C/C=C/OC[C@@H](O)CO
- outcome (Carcinogen: N-METHYL-N-NITROSOUREA, 684-93-5, Doses [Carcinogen]: 2 NG IN 0.5 ML WATER 3/WK FOR 3 WK, Doses [Promoter]: 0, 400 NG IN 0.5 ML BUFFER 2/WK FOR 24 WK BEGINNING 5 WK POST CARCINOGEN TREATMENT (STUDY DURATION: 32 WK), Route [Carcinogen]: INTRARECTAL, Route [Promoter]: INTRARECTAL, Species: RAT, Strain/Sex: F344/FEMALE): colon: carcinoma

Structure (SMILES): COC(=O)[C@@H](N)Cc1ccc(O)cc1
- outcome (Carcinogen: N-METHYL-N'-NITRO-N-NITROSOGUANIDINE, 70-25-7, Doses [Carcinogen]: 25 UG/ML IN DRINKING WATER FOR 25 WK, Doses [Promoter]: 0, 512 MG/KG BW IN 0.9% SALINE 1/2 D FOR 26 WK BEGINNING 1 WK POST CARCINOGEN TREATMENT (STUDY DURATION: 52 WK), Route [Carcinogen]: ORAL, Route [Promoter]: SUBCUTANEOUS, Species: RAT, Strain/Sex: WISTAR/MALE): stomach: adenocarcinoma
- outcome (Carcinogen: N-METHYL-N'-NITRO-N-NITROSOGUANIDINE, 70-25-7, Doses [Carcinogen]: 50 UG/ML IN DRINKING WATER FOR 20 WK, Doses [Promoter]: 0, 2 ML/KG IN A VOLUME OF 2 ML/KG 0.9% NACL AT DOSE LEVEL OF 512 MG/KG/BW 1/2 D FOR 32 WK (STUDY DURATION: 32 WK), Route [Carcinogen]: ORAL, Route [Promoter]: SUBCUTANEOUS, Species: RAT, Strain/Sex: WISTAR/MALE): stomach: adenocarcinoma

Structure (SMILES): NC(CO)C(=O)O (stereo unspecified)
- outcome (Carcinogen: N-ETHYL-N-HYDROXYETHYLNITROSAMINE, 13147-25-6, Doses [Carcinogen]: 500 PPM IN DIET FOR 2 WK, Doses [Promoter]: 0, 100 MG/100 G BW IN 2 ML 5% SALINE GIVEN 1/2 WK FOR 3 DOSES BEGINNING 1 WK POST CARCINOGEN (STUDY DURATION: 32 WK), Route [Carcinogen]: ORAL, Route [Promoter]: SUBCUTANEOUS, Species: RAT, Strain/Sex: WISTAR/MALE): kidney: dark cell tumor, clear cell tumor, adenocarcinoma
- outcome (Carcinogen: N-ETHYL-N-HYDROXYETHYLNITROSAMINE, 13147-25-6, Doses [Carcinogen]: 1000 PPM IN DIET FOR 2 WK, Doses [Promoter]: 0, 100 MG/100 G BW IN 2 ML 5% SALINE GIVEN 1/2 WK FOR 3 DOSES BEGINNING 1 WK POST CARCINOGEN (STUDY DURATION: 32 WK), Route [Carcinogen]: ORAL, Route [Promoter]: SUBCUTANEOUS, Species: RAT, Strain/Sex: WISTAR/MALE): kidney: dark cell tumor, clear cell tumor, adenocarcinoma

Structure (SMILES): Cn1cnc([N+](=O)[O-])c1Sc1ncnc2nc[nH]c12
- outcome (Carcinogen: UV IRRADIATION, Doses [Carcinogen]: 0.53 J/CM2 INCREASED BY 20% EVERY 2 WK TO 1.60 J/CM2 AND MAINTAINED AT 1.60 J/CM2 UNTIL DEATH, ADMINISTERED 5 D/WK FOR 1, Doses [Promoter]: 0, 15 UG/G BEGINNING 2 WK POST FIRST CARCINOGEN DOSE ADMINISTERED 2 HR PRIOR TO EACH CARCINOGEN DOSE (STUDY DURATION: 30, Route [Carcinogen]: DERMAL, Route [Promoter]: INTRAPERITONEAL, Species: MOUSE, Strain/Sex: SKH/HRL/FEMALE): skin: tumor

Structure (SMILES): C=O
- outcome (Carcinogen: Benzo[a]pyrene, 50-32-8, Doses [Carcinogen]: 150 mg applied once, Doses [Promoter]: 0 (acetone), 0.1, 0.5, 1.0 mg/mouse, 3x.wk for 26 wk, study duration 26 wk, Doses [Promoter]: 0 (acetone), 0.1, 0.5, 1.0 mg/mouse, 3x.wk for 26 wk, study duration 26 wk, Route [Carcinogen]: Not reported, Route [Promoter]: Dermal, Species: Mouse, Strain/Sex: CD-1/Female (30/Group)): skin: results were negative
- outcome (Carcinogen: N,N-Diethylnitrosamine, 55-18-5, Doses [Carcinogen]: 0.5 mg injections once a wk for 10 wk, Doses [Promoter]: 30 ppm weekly doses in various combinations from wk 12 for life of the animal, Route [Carcinogen]: Subcutaneous, Route [Promoter]: Inhalation, Species: Hamster, Strain/Sex: Syrian golden/Male (50/Group_): nasal epithelium: results were negative

Structure (SMILES): N#CS
- outcome (Carcinogen: N-BIS(2-HYDROXYPROPYL)NITROSAMINE, 53609-64-6, Doses [Carcinogen]: 280 MG/100 G/BW ONCE, Doses [Promoter]: 0, 0.5% IN DRINKING WATER FOR 25 WK (STUDY DURATION: 26 WK), Route [Carcinogen]: SUBCUTANEOUS, Route [Promoter]: ORAL, Species: RAT, Strain/Sex: F344/MALE): thyroid: neoplasm

Structure (SMILES): CC1=C[C@H]2[C@@]3(O)[C@H](C)[C@@H](OC(=O)c4ccccc4)[C@]4(OC(=O)c5ccccc5)[C@H]([C@@H]3C=C(CO)C[C@]2(O)C1=O)C4(C)C
- outcome (Carcinogen: 7,12-DIMETHYLBENZ(A)ANTHRACENE, Doses [Carcinogen]: TOP, Route [Carcinogen]: DERMAL, Route [Promoter]: DERMAL, Species: MOUSE, Strain/Sex: MALE,FEMALE): integumentary system (skin)
